Data published in patent publication US20180221438A1, “MODULATING URACIL-DNA GLYCOSYLASE AND USES THEREOF” (Adaerata Limited Partnership, priority 2015, published 2018).

Tests used:
Assay type in all cases: cell-based
[1] = system: Primary B cells from AID UNG double deficient mice; settings: 1 nM DidB, 72 h, AID-ires-GFP vs GFP alone or AIDE58A
Description: Primary B cells were harvested from AID UNG double deficient mice and cultured with anti-CD180, IL-4 and LPS. […] 24 h post infection, cells were treated with either DMSO vehicle or 1 nM of the EEF1A inhibitor DidB. Toxicity was measured after 72 h as the % difference of GFP+ cells in the DidB-treated culture compared to DMSO control. Data from two mice are averaged, bars are SEM.

[2] = system: B cells from wt or UNG−/− mice; experiment: B cell expansion by cell count after DidB treatment; settings: cells counted 48 h post-treatment, LPS and IL-4
Description: (§1) B cells were purified from wt or UNG−/− mice, and cultured directly with LPS and IL-4 and were counted 48 h post-treatment in order to measure B cell expansion (FIG. 14B); or after loading with the CFSE dye and cell divisions for treated cells were measured by analyzing the dilution of CFSE dye at 24 h post-treatment. Dilution of CFSE in cells is proportional to proliferation (FIGS. 14C-D).
(§2) 24 h later, cells were treated with either DMSO or DidB.

[3] = system: B cells from wt or UNG−/− mice; experiment: B cell divisions by CFSE dilution after DidB treatment; settings: Ung-deficient vs wt B cells
Description: as §1, §2

In the case of `CC[C@H](C)[C@H]1NC(=O)[C@@H](NC(=O)[C@@H](CC(C)C)N(C)C(=O)[C@@H]2CCCN2C(=O)C(C)O)[C@@H](C)OC(=O)[C@H](Cc2ccc(OC)cc2)N(C)C(=O)[C@@H]2CCCN2C(=O)[C@H](CC(C)C)NC(=O)[C@@H](C)C(=O)[C@H](C(C)C)OC(=O)C[C@@H]1O` (stereo partly shown) [DidB, didemnin B], the “sensitivity to DidB (toxicity, % difference of GFP+ cells vs DMSO)” value [1] is reported as “substantially more sensitive”, the B cell expansion [2] is reported as “further diminishes expansion in Ung-deficient B cells” and the “sensitivity to DidB treatment (cell divisions, CFSE)” value ([3]; 24 h post-treatment) is reported as “more sentitive”. The inhibition of proliferation ([3]; dose-dependent, CFSE dilution 24 h post-treatment) was “more marked in Ung-deficient B cells than wt B cells”.
